Measurements from patent USRE29842E, “Untriakontapeptide with opiate activity” (Hoffmann-La Roche Inc., priority 1977, dated 1978).
No end group written: not given here.

Columns and labels:
[1] = system: opiate receptor, guinea pig brain membranes; assay: Opiate agonist activity by receptor binding assay (method of Simon et al.); conditions: for Percentage of inhibition of stereospecific binding: mean ± standard error from 4 determinations
Experimental: The opiate agonist activity of natural beta-endophine was determined by the method of Simon et al., Proc. Nat. Acad. Sci. 70, 1947 (1973) using guinea pig brain membranes.

[2] = Hughes et al. Nature 258, 557 (1975); cited from earlier work
rabbit fat cells = assay: Lipolytic activity in rabbit fat cells (procedure of Li et al.); format: cell-based; conditions: triplicate, mean ± standard error
Source text: The lypolytic activity of natural beta-endorphin was compared to the activity of ovine beta-lipotropin hormone in rabbit fat cells using the procedure of Li et al., Arch. Biochem. Biophys. 169, 669 (1975).

Oc1ccc2c3c1O[C@H]1[C@@H](O)C=C[C@H]4[C@@H](C2)NCC[C@@]341 [Normophine, reference compound]
Percentage of inhibition of stereospecific binding ([1]; dose 0.7 (10-^7 M)): 28 ± 0.8 | Percentage of inhibition of stereospecific binding ([1]; dose 7.0 (10-^7 M)): 70 ± 0.9

H-Tyr-Gly-Gly-Phe-Met-OH (H-YGGFM-OH) [pentapeptide isolated from pig brains by Hughes et al]
Opiate agonist activity (in words) [2]: exhibits opiate agonist activity

YGGFMTSEKSQTPLVTLFKNAIIKNAHKKGQ [beta-endorphin]
Lipolytic activity: glycerol production (rabbit fat cells; dose 1.1 (unit not given)): 0.66 ± 0.28 Micromole of glycerol producti | Lipolytic activity: glycerol production (rabbit fat cells; dose 10.0 (unit not given)): 1.42 ± 0.37 Micromole of glycerol producti | Percentage of inhibition of stereospecific binding ([1]; dose 1.0 (10-^7 M)): 60 ± 0.7 | Percentage of inhibition of stereospecific binding ([1]; dose 10.0 (10-^7 M)): 83 ± 0.2 | Potency, times that for normophine on a molar basis ([1]; molar basis): 3.42 times
